Experiments:
Type in all cases: cell-based
[1] = system: AMPK signal pathway in human cardiac myocytes (HCM); assay: Western blot assay, human cardiomyocytes
[2] = system: human cardiomyocyte cells (HCM); assay: Glucose uptake assay, human cardiomyocyte cells; conditions: donor not stated
Experimental: FIGS. 17-19 show results for glucose update assays in human cardiomyocyte cells (“HCM”-healthy donor) (Promocell, cat. no. C-12810) when treated with compound I-11 (FIG. 17), compound I-7 (FIG. 18), and PF-06409577 (FIG. 19). After recovered HCM cells for 4 days, cells were starved for 3 hours in high glucose DMEM without FBS, treated with the components noted above in DMEM without FBS/glucose for 1 hour, and glucose uptake was detected using a glucose uptake kit (Promega). […] The bars show (from left to right) concentrations of 100 μM, 33 μM, 11 μM, 3.7 μM, 1.23 μM, 0.41 μM, 0.14 μM, 0.045 μM, 0.015 μM, 0.005 μM, 0 μM, and insulin.
FIGS. 20-22 show results for glucose update assays in human cardiomyocyte cells (“HCM”-diabetic donor) (Promocell, cat. no. C-12810) when treated with compound I-11 (FIG. 20), compound I-7 (FIG. 21), and PF-06409577 (FIG. 22). After recovered HCM cells for 4 days, cells were starved for 3 hours in high glucose DMEM without FBS, treated with the components noted above in DMEM without FBS/glucose for 1 hour, and glucose uptake was detected using a glucose uptake kit (Promega). […] The bars show (from left to right) concentrations of 100 μM, 33 μM, 11 μM, 3.7 μM, 1.23 μM, 0.41 μM, 0.14 μM, 0.045 μM, 0.015 μM, 0.005 μM, 0 μM, and insulin.
(§1) Human skeletal myoblasts were obtained (Thermofisher; BYU) and cultured in DMEM/F12 medium with 10% FBS. For differentiation, 2% horse serum low glucose DMEM medium was employed for 72 hours. Human cardiomyocytes cells (HCM cells; Promocell) were cultured in myocyte growth medium (Promocell). Human preadipocyte HWP-c cells (Promocell) were obtained from upper arm of diabetic II donor. Human preadipocyte HWP-c cells (Promocell) were obtained from abdomen of diabetic II donor. For differentiating human preadipocytes, cells were cultured in preadipocyte growth medium to total confluency stage. The growth medium was replaced with preadipocyte differentiation medium for 72 hours, then changed to PromoCell adipocyte nutrition medium to complete the differentiation process. THLE-2 cells were cultured in BEGM from Lonza/Clonetics Corporation, Walkersville, MD 21793 (BEGM Bullet Kit; CC3170). HepG2, L6 and C2Cl2 cells were cultured in EMEM medium.
(§2) After differentiation myoblasts, preadipocyte cells were starved by removing the medium and adding 100 μL DMEM without serum. The medium was then replaced with 100 μL DMEM±1 μM insulin at indicated concentration of representative compounds without serum or glucose. The cells were then incubated for 1 hour at 37° C. in 5% CO2. The cells were then removed from the medium and 50 μL of 0.1 mM 2DG in PBS was added. Cells were incubated for 30 minutes at 25° C. 25 μL of Stop Buffer was added and samples were mixed. 25 μL of Neutralization Buffer was then added and mixed. 100 μL of 2DG6P Detection Reagent was then added and mixed. Samples were then incubated for 1 hour at 25° C. Luminescence was then recorded with 0.3-1 second integration on a luminometer.

[3] = system: human skeletal muscle cells (HSKM cells); assay: Glucose uptake assay, human skeletal muscle cells; conditions: 100 μM to 0.005 μM, 1 hour
Experimental: FIGS. 1-4 show results for cells treated with differing doses of representative compounds of Structure (I) (i.e., compound I-11 in FIG. 1 and compound I-7 in FIG. 2) as well reference compounds (i.e., PF-06409577 in FIG. 3 and MK-8722 in FIG. 4). […] Cells were starved for 3 hours in high glucose DMEM without FBS, then treated with indicated compounds in DMEM without FBS/glucose for 1 hour, and glucose uptake was detected using an uptake glucose kit (Promega). The bars show (from left to right) concentrations of 100 μM, 33 μM, 11 μM, 3.7 μM, 1.23 μM, 0.41 μM, 0.14 μM, 0.045 μM, 0.015 μM, 0.005 μM, 0 μM, and insulin.
as §1, §2

SMILES: O[C@@H]1CO[C@H]2[C@@H]1OC[C@H]2Oc1nc2nc(-c3ccc(-c4ccccc4)cc3)c(Cl)cc2[nH]1 [MK-8722, reference compound]
- p-ACC/p-AMPK and AMPKα2β2γ3 expression [1]: may be able to increase
- glucose uptake [2]: could increase glucose uptake
- dose dependence of glucose uptake (printed: activation of insulin / AMPK activation) [3]: highly variable

Reference: patent US20250388571A1, “AMP-ACTIVATED PROTEIN KINASE MODULATOR COMPOUNDS AND USES THEREOF” (Biolexis Therapeutics, Inc., priority 2024, published 2025)
